Experiments:
[1] = Oxidative degradation of clevidipine: influence of oxygen content in headspace (H324/78); assay type: physicochemical; conditions: exposed to ambient light
Text: Nanoparticle formulations with clevidipine (formulation numbers 31, 40 and 42) as well as clevidipine solutions were purged either with nitrogen or compressed air, and exposed to ambient light to determine the effect of head space oxygen on the formation of oxidative degradation product, H324/78.

[2] = in vivo; cited from earlier work
[3] = cited from earlier work

H324/78 (% Area) ([1]; purged with compressed air (Air)): 3.06 % Area | H324/78 (% Area) ([1]; purged with nitrogen (N2)): 2.54 % Area
Structure (SMILES): CCCC(=O)OCOC(=O)C1=C(C)NC(C)=C(C(=O)OC)C1c1cccc(Cl)c1Cl (centres unmarked) [Clevidipine, clevidipine]
Initial phase half-life [2]: about one minute | Solubility in lipids [3]: moderate | Solubility in water [3]: negligible
